Among the data in patent US20170001990A1 (Genentech, Inc., priority 2014, published 2017) are IC50 values, retold here.

In the test the target is Human recombinant carboxy-terminal his-tagged LDHA (amino acids 2-332) (Homo sapiens, UniProt P00338). The test is described as follows: LDHA enzyme inhibition assay (NADH fluorescence). To be noted: LDHA IC50 (μM), 1 nM LDHA, NADH and pyruvate, stereochemistry of tested sample given.
For `Cn1ccnc1Nc1cccc(C2(c3ccsc3)CC(=O)C(Sc3ccccc3Cl)C(=O)N2)n1` (centres unmarked) [Example 277, 3-((2-chlorophenyl)thio)-6-(6-((1-methyl-1H-imidazol-2-yl)amino)pyridin-2-yl)-6-(thiophen-3-yl)piperidine-2,4-dione], the IC50 is 0.337 µM.

For `Cc1cnc(N)n1-c1cccc(C2(c3ccsc3)CC(=O)C(Sc3ccccc3Cl)C(=O)N2)n1` (centres unmarked) [Example 278, 6-(6-(2-amino-5-methyl-1H-imidazol-1-yl)pyridin-2-yl)-3-((2-chloro-phenyl)thio)-6-(thiophen-3-yl)piperidine-2,4-dione], the concentration for half-maximal inhibition (IC50) was 0.339 µM.

With `CN(c1ccc(Cl)cc1)c1cccc(C2(c3ccsc3)CC(=O)C(Sc3ccccc3Cl)C(=O)N2)n1` (centres unmarked) [Example 279, 6-(6-((4-chlorophenyl) (methyl)amino)pyridin-2-yl)-3-((2-chlorophenyl)thio)-6-(thiophen-3-yl) piperidine-2,4-dione], the IC50 was 0.272 µM.

For `O=C1CC(c2ccsc2)(c2cccc(NS(=O)(=O)N3CCC3)n2)NC(=O)C1Sc1ccccc1Cl` (centres unmarked) [Example 286, N-(6-(5-((2-chlorophenyl)thio)-4,6-dioxo-2-(thiophen-3-yl)piperidin-2-yl)pyridin-2-yl)azetidine-1-sulfonamide], the IC50 came to 0.057 µM.

Regarding `Cc1csc(Nc2cccc(C3(c4ccsc4)CC(=O)C(Sc4ccccc4Cl)C(=O)N3)n2)n1` (centres unmarked) [Example 287, 3-((2-chlorophenyl)thio)-6-(6-((4-methylthiazol-2-yl)amino)pyridin-2-yl)-6-(thiophen-3-yl)piperidine-2,4-dione], the 50% inhibitory concentration (IC50) came to 0.01 µM.

Take `Cc1cnc(Nc2cccc(C3(c4ccsc4)CC(=O)C(Sc4ccccc4Cl)C(=O)N3)n2)s1` (centres unmarked) [Example 288, 3-((2-chlorophenyl)thio)-6-(6-((5-methylthiazol-2-yl)amino)pyridin-2-yl)-6-(thiophen-3-yl)piperidine-2,4-dione]: the IC50 was found to be 0.141 µM.

As to `O=C1CC(c2ccsc2)(c2cccc(Nc3cccc(CO)c3)n2)NC(=O)C1Sc1ccccc1Cl` (centres unmarked) [Example 290], the IC50 was 0.017 µM.

Turning to `O=C1CC(c2ccsc2)(c2cccc(Nc3ccc(F)cc3)n2)NC(=O)C1Oc1ccccc1Cl` (centres unmarked) [Example 295, 3-(2-chlorophenoxy)-6-[6-(4-fluoroanilino)-2-pyridyl]-6-(3-thienyl)piperidine-2,4-dione], the IC50 was 0.081 µM.

Turning to `O=C1CC(c2ccsc2)(c2cccc(N[C@H](CO)c3ccc(F)c(Cl)c3)n2)NC(=O)C1Sc1ccccc1Cl` (stereo partly drawn) [Example 296, 6-(6-(((S)-1-(3-chloro-4-fluorophenyl)-2-hydroxy-ethyl)amino)pyridin-2-yl)-3-((2-chlorophenyl)thio)-6-(thiophen-3-yl) piperidine-2,4-dione], the half-maximal inhibitory concentration (IC50) came to 0.039 µM.

Turning to `CC[C@@H](Nc1cccc(C2(c3ccsc3)CC(=O)C(Sc3ccccc3Cl)C(=O)N2)n1)c1ccc(F)c(Cl)c1` (stereo partly drawn) [Example 297, 6-(6-(((R)-1-(3-chloro-4-fluorophenyl)propyl)amino)pyridin-2-yl)-3-((2-chlorophenyl)thio)-6-(thiophen-3-yl)piperidine-2,4-dione], the IC50 is 0.149 µM.

Consider `O=C1CC(c2ccsc2)(c2cccc(OCc3ccc(F)cc3)n2)NC(=O)C1Sc1ccccc1Cl` (centres unmarked) [Example 300, 3-((2-chlorophenyl)thio)-6-(6-((4-fluorobenzyl)oxy)pyridin-2-yl)-6-(thiophen-3-yl)piperidine-2,4-dione], for which the IC50 is 0.144 µM.

`CC(Oc1cccc(C2(c3ccsc3)CC(=O)C(Sc3ccccc3Cl)C(=O)N2)n1)c1ccc(F)cc1` (centres unmarked) [Example 301]: the 50% inhibitory concentration (IC50) was 0.092 µM.

`CCC(Nc1cccc(C2(c3ccsc3)CC(=O)C(Sc3ccccc3Cl)C(=O)N2)n1)c1ccc(F)cc1` (centres unmarked) [Example 304, 3-((2-chlorophenyl)thio)-6-(6-((1-(4-fluoro-phenyl)propyl)amino)pyridin-2-yl)-6-(thiophen-3-yl)piperidine-2,4-dione]: the half-inhibitory concentration (IC50) stood at 0.021 µM.

For the compound `CCC(Oc1cccc(C2(c3ccsc3)CC(=O)C(Sc3ccccc3Cl)C(=O)N2)n1)c1ccc(F)cc1` (centres unmarked) [Example 305], the IC50 came out at 0.025 µM.

`O=C1CC(c2ccsc2)(c2cccc(OC3CCC(F)(F)CC3)n2)NC(=O)C1Sc1ccccc1Cl` (centres unmarked) [Example 306, 3-((2-chlorophenyl)thio)-6-(6-((4,4-difluoro-cyclohexyl)oxy)pyridin-2-yl)-6-(thiophen-3-yl)piperidine-2,4-dione]: the IC50 is 0.129 µM.

Turning to `CC(O)c1cccc(Nc2cccc(C3(c4ccsc4)CC(=O)C(Sc4ccccc4Cl)C(=O)N3)n2)c1` (centres unmarked) [Example 307, 3-((2-chlorophenyl)thio)-6-(6-((3-(1-hydroxy-ethyl)phenyl)amino)pyridin-2-yl)-6-(thiophen-3-yl)piperidine-2,4-dione], the IC50 was 0.095 µM.

On to `O=C1CC(c2ccsc2)(c2cccc(OCC3CCCCC3)n2)NC(=O)C1Sc1ccccc1Cl` (centres unmarked) [Example 308, 3-((2-chlorophenyl)thio)-6-(6-(cyclohexylmethoxy)pyridin-2-yl)-6-(thiophen-3-yl)piperidine-2,4-dione], for which the half-inhibitory concentration (IC50) was found to be 0.825 µM.

As to `CN(c1cccc(CO)c1)c1cccc(C2(c3ccsc3)CC(=O)C(Sc3ccccc3Cl)C(=O)N2)n1` (centres unmarked) [Example 309, 3-((2-chlorophenyl)thio)-6-(6-((3-(hydroxymethyl)phenyl)(methyl)amino)pyridin-2-yl)-6-(thiophen-3-yl)piperidine-2,4-dione], the IC50 was found to be 0.408 µM.

On to `CN(c1cccc(CO)c1)c1cccc(C2(c3ccsc3)CC(=O)C(Sc3ccccc3Cl)C(=O)N2)n1` (centres unmarked) [Example 310, 3-((2-chlorophenyl)thio)-6-(6-((3-(hydroxymethyl)phenyl)(methyl)amino)pyridin-2-yl)-6-(thiophen-3-yl)piperidine-2,4-dione], for which the IC50 was determined as 0.365 µM.

For the compound `CC(Oc1cccc(C2(c3ccsc3)CC(=O)C(Sc3ccccc3Cl)C(=O)N2)n1)c1ccc(Cl)cc1` (centres unmarked) [Example 311, 6-(6-(1-(4-chlorophenyl)ethoxy)pyridin-2-yl)-3-((2-chlorophenyl)thio)-6-(thiophen-3-yl)piperidine-2,4-dione], the half-maximal inhibitory concentration (IC50) is 0.59 µM.

In the case of `CC(Oc1cccc(C2(c3ccsc3)CC(=O)C(Sc3ccccc3Cl)C(=O)N2)n1)c1cccc(F)c1` (centres unmarked) [Example 312, 3-((2-chlorophenyl)thio)-6-(6-(1-(3-fluorophenyl)ethoxy)pyridin-2-yl)-6-(thiophen-3-yl)piperidine-2,4-dione], the IC50 stood at 0.119 µM.

For the compound `CC(Oc1cccc(C2(c3ccsc3)CC(=O)C(Sc3ccccc3Cl)C(=O)N2)n1)c1ccc(F)c(F)c1` (centres unmarked) [Example 313, 3-((2-chlorophenyl)thio)-6-(6-(1-(3,4-difluoro-phenyl)ethoxy)pyridin-2-yl)-6-(thiophen-3-yl) piperidine-2,4-dione], the IC50 was 0.105 µM.

For `O=C1CC(c2ccsc2)(c2cccc(Oc3ccc(C(F)(F)F)cc3)n2)NC(=O)C1Sc1ccccc1Cl` (centres unmarked) [Example 315, 3-(2-chlorophenyl)sulfanyl-6-(3-thienyl)-6-[6-[4-(trifluoromethyl)phenoxy]-2-pyridyl]piperidine-2,4-dione], the IC50 was 0.014 µM.

In the case of `O=C1CC(c2ccsc2)(c2cccc(Nc3ccc(F)nc3)n2)NC(=O)C1Sc1ccccc1Cl` [Example 317, (6R)-3-(2-chlorophenyl) sulfanyl-6-[6-[(6-fluoro-3-pyridyl)amino]-2-pyridyl]-6-(3-thienyl) piperidine-2,4-dione], the half-inhibitory concentration (IC50) was 0.225 µM.

`O=C1C[C@](c2ccc(N3CCOCC3)cc2)(c2cccc(Oc3ccc(F)c(F)c3)n2)NC(=O)C1Sc1ccccc1Cl` (stereo partly drawn) [Example 318, (6S)-3-(2-chlorophenyl) sulfanyl-6-[6-(3,4-difluoro-phenoxy)-2-pyridyl]-6-(4-morpholinophenyl) piperidine-2,4-dione]: the concentration for half-maximal inhibition (IC50) worked out at 0.01 µM.

With `CC(C)c1cc(F)ccc1Oc1cccc([C@@]2(c3ccsc3)CC(=O)C(Sc3ccccc3Cl)C(=O)N2)n1` (stereo partly drawn) [Example 319, (6S)-3-(2-chlorophenyl) sulfanyl-6-[6-(4-fluoro-2-isopropyl-phenoxy)-2-pyridyl]-6-(3-thienyl) piperidine-2,4-dione], the 50% inhibitory concentration (IC50) turned out to be 0.197 µM.

Regarding `COC1CCC(Oc2cccc(C3(c4ccsc4)CC(=O)C(Sc4ccccc4Cl)C(=O)N3)n2)CC1` (centres unmarked) [Example 320, 5-(2-chlorophenyl)sulfanyl-4-hydroxy-2-[6-(4-methoxycyclohexoxyl)-2-pyridyl]-2-(3-thienyl)-1,3-dihydropyridin-6-one], the concentration for half-maximal inhibition (IC50) stood at 0.093 µM.

Take `O=C1CC(c2ccsc2)(c2cccc(OC3CCCc4ccccc43)n2)NC(=O)C1Sc1ccccc1Cl` (centres unmarked) [Example 321, 5-(2-chlorophenyl)sulfanyl-4-hydroxy-2-(6-tetralin-1-yloxy-2-pyridyl)-2-(3-thienyl)-1,3-dihydro-pyridin-6-one]: the half-inhibitory concentration (IC50) came out at 0.246 µM.

For the compound `O=C1CC(c2ccsc2)(c2cccc(Oc3ccc(F)nc3Cl)n2)NC(=O)C1Sc1ccccc1Cl` (centres unmarked) [Example 324, 6-[6-[(2-chloro-6-fluoro-3-pyridyl)oxy]-2-pyridyl]-3-(2-chlorophenyl) sulfanyl-6-(3-thienyl) piperidine-2,4-dione], the half-maximal inhibitory concentration (IC50) was 0.084 µM.

Turning to `O=C1C[C@](c2ccsc2)(c2cccc(Oc3ccc(Br)cc3Cl)n2)NC(=O)C1Sc1ccccc1Cl` (stereo partly drawn) [Example 327, (6S)-6-[6-(4-bromo-2-chloro-phenoxy)-2-pyridyl]-3-(2-chlorophenyl) sulfanyl-6-(3-thienyl) piperidine-2,4-dione], the concentration for half-maximal inhibition (IC50) worked out at 0.035 µM.

As to `O=C1CC(c2ccsc2)(c2ccc(N3CCOCC3)c(F)c2)NC(=O)C1Sc1ccccc1Cl` (centres unmarked) [Example 328, 3-(2-chlorophenyl)sulfanyl-6-(3-fluoro-4-morpholino-phenyl)-6-(3-thienyl)piperidine-2,4-dione], the concentration for half-maximal inhibition (IC50) turned out to be 0.054 µM.

In the case of `O=C1CC(c2ccsc2)(c2cccc(Nc3ccc(F)c(F)c3Cl)n2)NC(=O)C1Sc1ccccc1Cl` (centres unmarked) [Example 329, 6-[6-(2-chloro-3,4-difluoro-anilino)-2-pyridyl]-3-(2-chlorophenyl)sulfanyl-6-(3-thienyl)piperidine-2,4-dione], the half-maximal inhibitory concentration (IC50) worked out at 0.037 µM.
